# Results: patent EP2017264A1, “Substituted phenyl propargyl compounds, method for their manufacture and their use as herbicides and plant growth regulators” (BAYER CROPSCIENCE AG, priority 2007, dated 2009)
# Test: physchem
# Procedure: "LogP" = Verteilungskoeffizient in einem Zweiphasengemisch aus n-Octanol und Wasser.
# Die log P-Daten wurden in Übereinstimmung mit der EEC Direktive 79/831, Anlage V.A8 (Annex V.A8) mittels HPLC (High Performance Liquid Chromatography) auf einer Umkehrphase-Säule (reversed-phase column) (C18) mit folgenden Methoden bestimmt: Temperatur: 40°C; Mobile Phase: 0,1 % bzw. 0,06 %ige wässrige Ameisensäure oder 0,1 % wässriger Phosphorsäure und Acetonitril; linearer Gradient von 10% Acetonitril bis 90% bzw. 95 % Acetonitril. Die Kalibrierung wurde ausgeführt mit Hilfe unverzweigter Alkan-2-one (bestehend aus 3 bis 13 bzw.16 Kohlenstoff-Atomen) mit bekannten IogP-Werten (Bestimmung der IogP-Werte über die Retentionszeiten mittels linearer Interpolation zwischen zwei nachfolgenden Alkanonen).
row,chromatographic logP,SMILES
1,2.21,COc1nc(Cl)cnc1C=NOCC#Cc1cccc([S+](C)[O-])c1 (centres unmarked) [Beispiel 4.106]
2,3.24,COc1ncc(C=NOCC#Cc2cccc(CC#N)c2)cc1F [Beispiel 5.044]
3,2.5,COc1ccc(C=NOCC#Cc2cccc(S(C)(=O)=O)c2)cn1 [Beispiel 5.122]
4,2.94,COc1ccc(C=NOCC#Cc2ccc(F)c(SC)c2)cn1 [Beispiel 5.125]
5,3.49,COc1ccc(C=NOCC#Cc2ccc(C#N)c(SC)c2)cn1 [Beispiel 5.126]
6,4.34,CCSc1cccc(C#CCON=Cc2ccc(OC)nc2)c1 [Beispiel 5.127]
7,4.03,CCSc1cc(C#CCON=Cc2ccc(OC)nc2)ccc1OC [Beispiel 5.131]
8,2.42,CC[S+]([O-])c1cc(C#CCON=Cc2ccc(OC)nc2)ccc1OC (centres unmarked) [Beispiel 5.132]
9,4.9,CCSc1cc(C#CCON=Cc2ccc(OC)nc2)ccc1C [Beispiel 5.133]
10,2.51,CC[S+]([O-])c1cc(C#CCON=Cc2ccc(OC)nc2)ccc1C (centres unmarked) [Beispiel 5.134]
11,4.26,COc1ccc(C=NOCC#Cc2cccc(OC(F)(F)F)c2)cn1 [Beispiel 5.135]
12,4.8,COc1ccc(C=NOCC#Cc2cccc(SC(C)C)c2)cn1 [Beispiel 5.136]
13,4.72,C=CCSc1cccc(C#CCON=Cc2ccc(OC)nc2)c1 [Beispiel 5.137]
14,3.83,COc1ccc(C=NOCC#Cc2ccc(OC)c(SC)c2)cn1 [Beispiel 5.138]
15,4.1,COc1ccc(C=NOCC#Cc2ccc(F)c(SC)c2F)cn1 [Beispiel 5.139]
16,2.17,COc1ccc(C=NOCC#Cc2ccc(F)c([S+](C)[O-])c2F)cn1 (centres unmarked) [Beispiel 5.140]
17,3.83,COc1ccc(C=NOCC#Cc2ccc(F)c(F)c2)cn1 [Beispiel 5.141]
18,4.54,COc1ccc(C=NOCC#Cc2cc(C)c(F)c(SC)c2)cn1 [Beispiel 5.142]

row,chromatographic logP,SMILES
1,3.79,COc1ccc(C=NOCC#Cc2ccccc2SC)cn1 [Beispiel 5.143]
2,2.76,COc1ccc(C=NOCC#Cc2cc(C)c(F)c([S+](C)[O-])c2)cn1 (centres unmarked) [Beispiel 5.144]
3,2.19,COc1ccc(C=NOCC#Cc2ccccc2[S+](C)[O-])cn1 (centres unmarked) [Beispiel 5.145]
4,4.11,COc1ccc(C=NOCC#Cc2ccc(F)c(F)c2SC)cn1 [Beispiel 5.146]
5,2.17,COc1ccc(C=NOCC#Cc2ccc(F)c(F)c2[S+](C)[O-])cn1 (centres unmarked) [Beispiel 5.147]
6,4.57,COc1ccc(C=NOCC#Cc2cc(SC)c(F)c(SC)c2)cn1 [Beispiel 5.148]
7,2.42,COc1ncccc1C=NOCC#Cc1ccc(C)c([S+](C)[O-])c1 (centres unmarked) [Beispiel 5.168]
8,1.37,Cc1ccc(C#CCON=Cc2cccnc2)cc1[S+](C)[O-] (centres unmarked) [Beispiel 5.170]
9,2.83,CCOc1ncccc1C=NOCC#Cc1ccc(C)c([S+](C)[O-])c1 (centres unmarked) [Beispiel 5.171]
10,3.69,CC(C)Oc1ccc(C=NOCC#Cc2cccc(CC#N)c2)cn1 [Beispiel 5.178]
11,4.93,COc1ccc(C=NOCC#Cc2cccc(SC)c2)c(OC)n1 [Beispiel 5.183]
12,3.79,COc1ccc(C=NOCC#Cc2cccc(CC#N)c2)c(OC)n1 [Beispiel 5.184]
13,4.22,CSc1cccc(C#CCON=Cc2ccc(SC)nc2)c1 [Beispiel 5.186]
14,3.18,CSc1ccc(C=NOCC#Cc2cccc(CC#N)c2)cn1 [Beispiel 5.187]
15,5.08,CSc1cccc(C#CCON=Cc2ccc(OCC(F)(F)F)nc2OCC(F)(F)F)c1 [Beispiel 5.191]
16,4.03,N#CCc1cccc(C#CCON=Cc2ccc(OCC(F)(F)F)nc2OCC(F)(F)F)c1 [Beispiel 5.192]
17,3.4,C[S+]([O-])c1cccc(C#CCON=Cc2ccc(OCC(F)(F)F)nc2OCC(F)(F)F)c1 (centres unmarked) [Beispiel 5.193]
